Where two headings read alike, the source gives them in different places.
Legend:
[1] = Bone marrow erythroid progenitor colony assay, 14 days; assay type: cell-based, human; details: human, read-out: Mean CC50 ± SD in Bone marrow cells Erythroid; for CC50 at 14 days: human bone marrow erythroid progenitors
[2] = Bone marrow myeloid progenitor colony assay, 14 days; assay type: cell-based, human; details: human, read-out: Mean CC50 ± SD in Bone marrow cells Myeloid; for CC50 at 14 days: human bone marrow myeloid progenitors
[3] = molecular target: T1, RNA PolII (Homo sapiens, UniProt P24928+P30876); assay: Inhibition of RNA PolII (HeLaScribe nuclear extract transcription); assay type: biochemical; details: read-out: Mean IC50 ± SD for RNA PolII
T1 construct: purchased as part of the HeLaScribe nuclear extract in vitro transcription system kit; purchased Promega (Madison, WI); host or cells: HeLa nuclear extract (endogenous enzyme)
From the text: (§1) Activated fish sperm DNA was purchased from USB/Affymetrix (Santa Clara, CA) and used as a template for the DNA polymerases alpha, beta, and gamma. The DNA template used in the RNA Pol II assay was a 1,188-bp restriction fragment containing the cytomegalovirus (CMV) immediate early promoter (Promega, Madison, WI). The RNA and DNA oligonucleotides used in the mitochondrial RNA polymerase assay (see Table S1 in the supplemental material) were synthesized and PAGE purified by Thermo Scientific/Dharmacon (Lafayette, CO). RNA primer R12 was 5′-^32P-phosphorylated with [γ-^32P]ATP (3,000 Ci/mmol) and T4 kinase (New England BioLabs, Ipswich, MA).
(§2) Human DNA polymerase alpha, isolated from HeLa cell extracts, was from CHIMERx (Madison, WI). Recombinant human DNA polymerase beta, expressed in E. coli, was a gift from Zucai Suo at The Ohio State University. Recombinant human DNA polymerase gamma (including both the large subunit and the small subunit) was cloned, expressed, and purified from insect cells by Gilead Sciences (Foster City, CA) ([13]). RNA PolII was purchased as part of the HeLaScribe nuclear extract in vitro transcription system kit from Promega (Madison, WI). The recombinant human PolRMT and the transcription factors mitochondrial transcription factor A (mtTFA) and B2 (mtTFB2) were purchased from Enzymax (Lexington, KY). FLAG epitope-tagged RNA PolI and PolIII complexes were isolated from rat NSN1 cells and HeLa cells, respectively ([17], [18]). The inhibition of DNA polymerases alpha, beta, and gamma, PolRMT, and PolII and the rate of single-nucleotide incorporation by PolRMT have been described previously in detail ([12], [13], [19]). Inhibition of RNA PolI and PolIII was studied using published methods ([20], [21]). All concentrations were final unless noted otherwise. For the RNA PolI inhibition assay, a reaction mixture containing 50 mM HEPES (pH 7.9), 20% glycerol, 100 mM KCl, 1 mM dithiothreitol (DTT), 50 μg/ml calf thymus DNA, 4 mM MgCl2, 5 or 80 μM UTP (0.25 μl of [5,6-^3H]UTP, >25 Ci/mmol; PerkinElmer), 1 mM noncompeting NTP, competing NTP (5 μM for GTP, CTP, and UTP and 25 μM for ATP), and various concentrations (0 to 500 μM) of NTP analogs was preincubated at 30°C for 5 min. […] After incubation at 30°C for 20 min to 1 h, the reactions were terminated by pipetting the mixtures onto DEAE-cellulose discs (DE81; Whatman), and the products analyzed as described previously ([20], [21]).

[4] = test system: nuclear DNA-encoded succinate dehydrogenase (SDH-A; complex II) protein level; assay: Nuclear protein synthesis (SDH-A, MitoBiogenesis in-cell ELISA) in PC-3 cells; assay type: cell-based, human; details: human, read-out: Mean CC50 ± SD causing General cellular toxicity: Protein synthesis
In short: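 PC-3 cells were exposed to compound for 5 days. Protein levels of nuclear-encoded SDH-A and mitochondrial-encoded COX-1 were then quantified by in-cell ELISA (quantitative immunocytochemistry).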

[5] = Cytotoxicity in quiescent PBMCs, 5 days; details: human, quiescent PBMCs
Experimental: (§3) Human peripheral blood mononuclear cells (PBMCs) were isolated from human buffy coats obtained from healthy volunteers (Stanford Blood Bank, Palo Alto, CA) using standard Ficoll separation and stimulated as described elsewhere ([13]) and were tested at both quiescent and stimulated stages. Quiescent PBMCs were stimulated with 10 units per ml of recombinant human interleukin 2 (hIL-2) and 1 μg per ml phytohemagglutinin P (PHA-P) for 48 h prior to drug treatment.
(§4) All cells were cultured at 37°C in a 5% CO2 incubator with 90% humidity unless noted otherwise. […] All cells were treated with the various compounds for 5 days, except for human erythroid and myeloid progenitors, which were treated for 14 days. After the incubation period, cell viability was measured by the addition of CellTiter Glo viability reagents (Promega, Madison, WI). The luminescence signal was quantified on an Envision luminescence plate reader (PerkinElmer, Waltham, MA) after incubation of the reagents and cells for 10 min at room temperature. […] CC50 values were calculated as the average of the results of three or four independent experiments.
(§5) Human peripheral blood mononuclear cells (PBMCs) were isolated from human buffy coats
(§6) obtained from normal healthy volunteers (Stanford Medical School Blood Center, Palo Alto,
(§7) CA). Total PBMCs were isolated from buffy coats using standard Ficoll separation and sterile
(§8) cellular isolation techniques performed in a bio-safety cabinet (1). Except where noted, the
(§9) procedure was carried out at room temperature. The final PBMCs pellet was resuspended in
(§10) Logan, UT), penicillin 100 units/mL and streptomycin 100 µg/mL (Gibco). For quiescent
(§11) PBMCs cultures, total cells were seeded in 96-well plates at a density of 1 x 10^6 cells per well, followed by immediate drug treatment. Stimulated PBMCs cultures were set up by seeding the freshly isolated PBMCs in T-175cm2 tissue culture flasks in 100 mL of RPMI containing the same components as the ones used for the quiescent PBMCs but with the addition of 10 units per mL of recombinant human interleukin-2 (hIL-2, Roche, Indianapolis, IN), and 1 µg per mL phytohemagglutinin-P (PHA-P, Sigma-Aldrich, St. Louis, MO) at density of 2  10^6 cells per mL for 48 hours at 37C in a 5% CO2 incubator with 90% humidity, prior to drug treatment.

[6] = Cytotoxicity in stimulated PBMCs, 5 days; details: human, stimulated PBMCs
Experimental: as §3, §4, §5, §6, §7, §8, §9, §10, §11

[7] = Cytotoxicity in MT-4 T-cells, 5-day treatment; details: human, MT-4 cells
Experimental: (§12) Primary human hepatocytes were from Bioreclamation IVT (Westbury, NY) or Life Technologies (Carlsbad, CA).
as §4

[8] = Cytotoxicity in MRC5 fibroblasts, 5-day treatment; details: human, MRC5 fibroblasts
Experimental: as §4
Cell Culture and Cytotoxicity Studies
(§13) The Huh-7 cells were maintained in growth medium containing Dulbecco's Modified Eagle
(§14) Medium (DMEM, Cellgro) supplemented with 1% Nonessential Amino Acids (NEAA, Cellgro,
(§15) Manassas, VA), 10% fetal bovine serum (FBS, HyClone, Logan, UT) and 1% Penicillin-
(§16) streptomycin-glutamate (PSG, Invitrogen, Carlsbad, CA). The cells were passaged twice weekly
(§17) and maintained at 90% confluence densities.
(§18) The HepG2 cells were maintained in Eagle’s Minimum Essential Medium (EMEM) from ATCC
(§19) (Manassas, VA) supplemented with 10% FBS, 100 units/mL penicillin and 100 µg/mL
(§20) streptomycin (P/S) (Gibco). The cells were passaged twice weekly and maintained at 90%
(§21) The PC-3 cells were maintained in Kaighn’s F12 medium (Gibco, Carlsbad, CA) supplemented
(§22) with 10% FBS (HyClone, Logan, UT), 100 units/mL penicillin and 100 µg/mL streptomycin
(§23) (P/S) (Gibco). The cells were passaged twice weekly and maintained at 90% confluence. Cells
(§24) between passages 4 and 15 were used in the assays.
(§25) The fibroblast cell line MRC-5 cell line derived from normal lung tissue, was purchased from
(§26) ATCC (Manassas, VA) and cultured in Minimum Essential Medium (MEM) (Cellgro, Manassas,
(§27) VA) supplemented with 10% FBS (HyClone, Logan, UT) and 1% PSG (Invitrogen). The cells
(§28) were passaged twice weekly and maintained at 90% confluence densities.

[9] = Cytotoxicity in primary human hepatocytes, 5 days; details: human, primary human hepatocytes
Experimental: as §12, §4

[10] = Cytotoxicity / ATP level in PC-3 cells, 5-day treatment; details: human, PC-3 cells
[11] = Cytotoxicity in HepG2 (galactose) cells, 5-day treatment; details: human, HepG2 cells (galactose)
Experimental: as §4
Cell Culture and Cytotoxicity Studies
as §13, §14, §15, §16, §17, §18, §19, §20, §21, §22, §23, §24, §25, §26, §27, §28

[12] = Cytotoxicity in Huh7 cells, 5-day treatment (CellTiter Glo); details: human, Huh-7 cells
Experimental: as §4
Cell Culture and Cytotoxicity Studies
as §13, §14, §15, §16, §17, §18, §19, §20, §21, §22, §23, §24, §25, §26, §27, §28

[13] = test system: mitochondrial spare respiratory capacity; assay: Oxygen consumption rate / spare respiratory capacity in PC-3 cells; details: human, pH 7.4
Experimental: (§29) Mitochondrial respiration was monitored by measuring the rate of oxygen consumption (OCR) of PC-3 cells after 3-day treatments with the compounds, using a Seahorse extracellular flux analyzer (XF^e-96) based on published protocols ([22][–][24]). The optimal cell seeding was determined by measuring the basal OCR of PC-3 cells that were seeded at different densities of 2.5 × 10^3, 5 × 10^3, 7.5 × 10^3, and 10 × 10^3 cells/well in XF 96-well plates (Seahorse Bioscience, North Billerica, MA) and incubated with 0.5% dimethyl sulfoxide (DMSO) for 3 days. […] Each reagent in the Mito Stress test kit (Seahorse Biosciences), i.e., ATP synthase inhibitor oligomycin, mitochondrial uncoupler carbonyl cyanide-4-(trifluoromethoxy)phenylhydrazone (FCCP), and a fixed-ratio mixture of the mitochondrial complex I (NADH dehydrogenase) inhibitor rotenone and the complex III (CoQH2-cytochrome c reductase) inhibitor antimycin A, was titrated. The lowest concentration that reached the maximal effect was chosen for each reagent. The OCR signals were normalized by cell numbers using DNA content determined by Hoechst's stain as described below.
(§30) PC-3 cells were seeded at a density of 5 × 10^3 cells/well in XF 96-well plates and incubated with the compounds for 3 days. On the day of the assay, the cell medium was replaced with XF assay medium (pH 7.4) containing 10 mM glucose and 1 mM freshly prepared pyruvate. Mitochondrial respiration was monitored by measuring OCR on a Seahorse extracellular flux analyzer (XF^e-96). All concentrations listed are the final concentration after mixing unless noted otherwise. […] Spare respiratory capacity was obtained by subtracting the rate of basal respiration from the rate of maximal respiration.
(§31) The cells were lysed by freezing at −80°C for >2 h. […] In parallel, another set of cells was treated with the compounds for 3 days and the ATP levels were measured using CellTiter Glo viability reagents (Promega, Madison, WI).

[14] = molecular target: T2, recombinant human PolRMT (Homo sapiens, UniProt O00411); assay: Single-nucleotide incorporation by PolRMT; assay type: biochemical; details: triphosphate form, fixed saturating concentration 500 μM, rate relative to corresponding natural rNTP
T2 construct: purchased Enzymax (Lexington, KY)
From the text: as §1, §2
Supplementary Table S1: RNA primer and templates used in mitochondrial RNA
polymerase single nucleotide incorporation assay.
Oligonucleotides Sequencesa
Primer (R12) 5’-[…]-3’
Templates (D18) 3’-[…]-5’
a The bold letter in the template sequences denotes the bases that pair with the incoming NTP. […]

[15] = test system: mitochondrial spare respiratory capacity in PC-3 cells; assay: Oxygen consumption rate / spare respiratory capacity in PC-3 cells; details: PC-3 cells, 3-day treatments
Experimental: as §29, §30, §31

[16] = test system: human erythroid progenitors (bone marrow cells); details: read-out: Mean CC50 ± SD in Bone marrow cells Erythroid; 14 days; cited from earlier work
[17] = test system: human myeloid progenitors (bone marrow cells); details: read-out: Mean CC50 ± SD in Bone marrow cells Myeloid; 14 days; cited from earlier work
[18] = test system: Prostate cells (PC-3); assay: Cytotoxicity / ATP level in PC-3 cells, 5-day treatment; details: read-out: Mean CC50 ± SD causing General cellular toxicity: ATP level; PC-3 cells, 5 days
[19] = triphosphate form of the compound tested (Table 4)

T2 sequence (O00411 42-1230): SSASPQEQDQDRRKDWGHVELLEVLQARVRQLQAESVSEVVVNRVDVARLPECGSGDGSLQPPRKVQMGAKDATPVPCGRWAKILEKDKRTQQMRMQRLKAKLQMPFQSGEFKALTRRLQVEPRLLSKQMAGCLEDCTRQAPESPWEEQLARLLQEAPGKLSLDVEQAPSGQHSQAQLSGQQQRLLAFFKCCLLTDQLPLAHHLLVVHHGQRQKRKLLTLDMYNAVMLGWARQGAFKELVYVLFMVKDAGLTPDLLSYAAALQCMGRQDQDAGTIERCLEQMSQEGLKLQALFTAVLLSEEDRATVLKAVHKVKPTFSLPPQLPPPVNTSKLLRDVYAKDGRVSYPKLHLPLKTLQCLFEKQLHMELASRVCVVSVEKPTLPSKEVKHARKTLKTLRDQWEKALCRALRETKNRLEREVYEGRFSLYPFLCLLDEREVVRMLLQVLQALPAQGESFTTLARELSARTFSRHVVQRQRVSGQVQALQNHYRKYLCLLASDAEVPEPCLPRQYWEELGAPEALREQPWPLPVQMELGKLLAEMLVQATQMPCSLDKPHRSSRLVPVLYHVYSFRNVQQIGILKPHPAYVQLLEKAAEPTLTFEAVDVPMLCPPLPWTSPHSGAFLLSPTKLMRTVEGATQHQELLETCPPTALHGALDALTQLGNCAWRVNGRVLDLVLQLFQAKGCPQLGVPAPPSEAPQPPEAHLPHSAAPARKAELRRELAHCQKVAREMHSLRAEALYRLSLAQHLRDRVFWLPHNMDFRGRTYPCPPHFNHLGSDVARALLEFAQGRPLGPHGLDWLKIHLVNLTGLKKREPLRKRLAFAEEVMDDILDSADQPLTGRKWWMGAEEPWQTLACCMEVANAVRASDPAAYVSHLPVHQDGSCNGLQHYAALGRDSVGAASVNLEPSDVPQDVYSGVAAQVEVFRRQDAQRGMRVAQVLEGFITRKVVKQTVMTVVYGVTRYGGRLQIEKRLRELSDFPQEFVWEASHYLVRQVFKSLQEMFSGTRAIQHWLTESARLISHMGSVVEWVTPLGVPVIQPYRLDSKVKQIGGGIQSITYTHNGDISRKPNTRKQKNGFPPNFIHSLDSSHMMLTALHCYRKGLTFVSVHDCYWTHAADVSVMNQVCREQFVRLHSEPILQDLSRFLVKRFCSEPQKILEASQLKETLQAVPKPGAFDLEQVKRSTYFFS

C[C@@]1(O)[C@H](O)[C@@H](CO)O[C@H]1n1ccc(N)nc1=O [2′CMeC, 2′-C-methyl (2′CMe) cytidine]
CC50 at 14 days [1]: 99 ± 18 µM
CC50 at 14 days [2]: 76 ± 16 µM
IC50 [3, 19]: > 200 µM
CC50 at 5 days [4]: 68 ± 26 µM
CC50 at 5 days [5]: > 100 µM
CC50 at 5 days [6]: 64 ± 18 µM
CC50 at 5 days [7]: 19 ± 6 µM
CC50 at 5 days [8]: 69 ± 1 µM
CC50 at 5 days [9]: > 100 µM
CC50 at 5 days [10]: 49 ± 18 µM
CC50 at 5 days [11]: > 89 µM
CC50 at 5 days [12]: > 89 µM
CC50 at 3 days ([13]; PC-3 cells): 100 µM

C[C@@]1(O)[C@H](O)[C@@H](COP(=O)(O)OP(=O)(O)OP(=O)(O)O)O[C@H]1n1cnc2c(=O)[nH]c(N)nc21 [2′CMeGTP]
IC50 ([3]; nucleotide analogs (Table 6)): > 500 µM
IC50 [3, 19]: > 200 µM
Substrate incorporation (% of NTP [mean ± SD]) of PolRMT [14]: 92 ± 33 % of NTP

[N-]=[N+]=N[C@]1(CO)O[C@@H](n2ccc(N)nc2=O)[C@H](O)[C@@H]1O [4′-AzidoC, 4′-azido cytidine]
CC50 at 14 days [1]: > 100 µM
CC50 at 14 days [2]: 108 ± 12 µM
IC50 [3, 19]: > 200 µM
CC50 at 5 days [4]: > 50 µM
CC50 at 5 days [5]: > 100 µM
CC50 at 5 days [6]: > 100 µM
CC50 at 5 days [7]: > 100 µM
CC50 at 5 days [8]: > 89 µM
CC50 at 5 days [9]: > 100 µM
CC50 at 5 days [10]: 30 ± 6 µM
CC50 at 5 days [11]: > 89 µM
CC50 at 5 days [12]: > 89 µM
selectivity of effect on spare respiratory capacity versus DNA and ATP levels [15]: selective inhibition of mitochondrial respiration
CC50 at 3 days ([13]; PC-3 cells): 4.5 ± 0.3 µM

COc1nc(N)nc2c1ncn2[C@@H]1O[C@H](COP(=O)(N[C@@H](C)C(=O)OCC(C)(C)C)Oc2cccc3ccccc23)[C@@H](O)[C@@]1(C)O (stereo partly shown) [BMS-986094]
CC50 [1]: 4.5 ± 1.5 µM
CC50 [2]: 2.6 ± 0.5 µM
Substrate incorporation (% of NTP [mean ± SD]) of PolRMT [14]: rates similar to those of their corresponding natural rNTPs
CC50 at 5 days [4]: 0.84 ± 0.26 µM
selectivity of effect on spare respiratory capacity versus DNA and ATP levels [15]: selective inhibition of mitochondrial respiration
CC50 at 3 days [13]: 0.48 ± 0.07 µM

CC(C)OC(=O)[C@H](C)N[P@](=O)(OC[C@H]1O[C@@](C#N)(c2ccc3c(N)ncnn23)[C@](C)(O)[C@@H]1OC(=O)C(C)C)Oc1ccccc1 [GS-6620]
IC50 [3, 19]: > 200 µM
CC50 at 5 days [4]: 45 ± 2 µM
CC50 [16]: 15 ± 7 µM
CC50 [17]: 3.1 ± 2.6 µM

CCOc1nc(N)nc2c1ncn2[C@@H]1O[C@@H]2COP(=O)(OC(C)C)O[C@H]2[C@@]1(C)F (stereo partly shown) [PSI-938]
CC50 at 14 days [1]: > 100 µM
CC50 at 14 days [2]: > 100 µM
IC50 [3, 19]: > 200 µM
Substrate incorporation (% of NTP [mean ± SD]) of PolRMT [14]: 1.6 ± 0.2 % of NTP
CC50 at 5 days [4]: > 100 µM
CC50 at 5 days [5]: > 100 µM
CC50 at 5 days [6]: > 100 µM
CC50 at 5 days [7]: > 100 µM
CC50 at 5 days [8]: > 89 µM
CC50 at 5 days [9]: > 100 µM
CC50 at 5 days [10]: > 100 µM
CC50 [18]: > 100 µM
CC50 at 5 days [11]: > 89 µM
CC50 at 5 days [12]: > 89 µM

C[C@@]1(F)[C@H](O)[C@@H](CO)O[C@H]1n1ccc(N)nc1=O [PSI-6130]
IC50 [3, 19]: > 200 µM
Substrate incorporation (% of NTP [mean ± SD]) of PolRMT [14]: 0.81 ± 0.13 % of NTP
CC50 at 5 days [4]: > 100 µM
CC50 at 5 days [5]: > 100 µM
CC50 at 5 days [6]: 100 µM
CC50 at 5 days [7]: > 100 µM
CC50 at 5 days [8]: > 89 µM
CC50 at 5 days [9]: > 100 µM
CC50 at 5 days [10]: > 100 µM
CC50 [18]: > 100 µM
CC50 at 5 days [11]: > 89 µM
CC50 at 5 days [12]: > 89 µM

CC(C)OC(=O)[C@H](C)N[P@](=O)(OC[C@H]1O[C@@H](n2ccc(=O)[nH]c2=O)[C@](C)(F)[C@@H]1O)Oc1ccccc1 [Sofosbuvir]
IC50 [3, 19]: > 200 µM
Substrate incorporation (% of NTP [mean ± SD]) of PolRMT [14]: 0.45 ± 0.40 % of NTP
Substrate incorporation (% of NTP [mean ± SD]) of PolRMT ([14]; listed as sofosbuvir): < 1 % of NTP
CC50 at 5 days [4]: > 100 µM
CC50 [16]: > 100 µM
CC50 [17]: > 100 µM
CC50 [18]: > 100 µM
